# Source: PMC12090182, “Repurposing of the RIPK1-Selective Benzo[1,4]oxazepin-4-one Scaffold for the Development of a Type III LIMK1/2 Inhibitor” (ACS Chemical Biology, 2025)
# Tested on: MRC-9 cells
# Assay: Multiplex high-content viability assessment
# Assay type: cell-based
# Settings: human fibroblast
# Description: To assess the influence on cell health, a high-content screening in living cells called the multiplex high-content assay, as described previously by Tjaden et al., was performed.[38] In brief, HEK293T (ATCC CRL-1573) and U2OS (ATCCHTB-96) were cultured in DMEM plus L-glutamine (high glucose) supplemented by 10% FBS (Gibco) and penicillin/streptomycin (Gibco). MRC-9 fibroblasts ([…]) were cultured in EMEM plus L-glutamine supplemented by 10% FBS (Gibco) and penicillin/streptomycin (Gibco). Cells were seeded at a density of 1250 cells per well in a 384-well plate in a culture medium (cell culture microplate, PS, f-bottom, μClear, 781091, Greiner), with a volume of 50 μL per well. All outer wells were filled with 100 μL of PBS buffer (Gibco). […] The cell shape and fluorescence were measured before treatment and 12, 24, and 48 h after compound treatment using the CQ1 high-content confocal microscope (Yokogawa, Musashino, Japan). […] The compounds were tested at 1 and 10 μM, respectively. Acquired images of the cells were processed using Yokogawa CellPathfinder software (v3.04.02.02). […] Results were normalized to cells exposed to 0.1% DMSO. All compounds were tested in biological duplicates, and SEM (standard error of mean) was calculated of biological duplicates.
# [1] = 1 µM, 0 h, biological replicate 1
# [2] = 1 µM, 12 h, biological replicate 1
# [3] = 1 µM, 24 h, biological replicate 1
# [4] = 1 µM, 48 h, biological replicate 1
# [5] = 1 µM, 0 h after treatment, biological replicate 2
# [6] = 1 µM, 12 h after treatment, biological replicate 2
# [7] = 1 µM, 24 h after treatment, biological replicate 2
# [8] = 1 µM, 48 h after treatment, biological replicate 2
# [9] = 10 µM, 0 h, biological replicate 1
structure (smiles),measurement,setting,value
CCCCN(Cc1ccccc1)C(=O)c1ccc(S(=O)(=O)Nc2ccccc2)cc1 [TH257],Cell count normalized to cells treated with DMSO control,[1],1.114
same,Cell count per well,[1],167
same,Population Fragmented Nuclei (%),[1],8.59%
same,Population Healthy Nuclei (%),[1],70.55%
same,Population Pyknosed Nuclei (%),[1],20.86%
same,Population apoptotic cell (%),[1],41.18%
same,Population cell that influence microtubule strucutre (%),[1],18.26%
same,Population with increased mitochondrial mass (%),[1],10.43%
same,Population with membrane disruption (%),[1],0.87%
same,Cell count normalized to cells treated with DMSO control,[2],1.0759
same,Cell count per well,[2],162
same,Population Fragmented Nuclei (%),[2],8.18%
same,Population Healthy Nuclei (%),[2],74.84%
same,Population Pyknosed Nuclei (%),[2],16.98%
same,Population apoptotic cell (%),[2],37.04%
same,Population cell that influence microtubule strucutre (%),[2],23.53%
same,Population with increased mitochondrial mass (%),[2],5.88%
same,Population with membrane disruption (%),[2],1.68%
same,Cell count normalized to cells treated with DMSO control,[3],1.074
same,Cell count per well,[3],162
same,Population Fragmented Nuclei (%),[3],8.86%
same,Population Healthy Nuclei (%),[3],76.58%
same,Population Pyknosed Nuclei (%),[3],14.56%
same,Population apoptotic cell (%),[3],43.48%
same,Population cell that influence microtubule strucutre (%),[3],23.97%
same,Population with increased mitochondrial mass (%),[3],5.79%
same,Population with membrane disruption (%),[3],0.00%
same,Cell count normalized to cells treated with DMSO control,[4],1.094
same,Cell count per well,[4],166
same,Population Fragmented Nuclei (%),[4],14.56%
same,Population Healthy Nuclei (%),[4],76.58%
same,Population Pyknosed Nuclei (%),[4],8.86%
same,Population apoptotic cell (%),[4],64.29%
same,Population cell that influence microtubule strucutre (%),[4],20.66%
same,Population with increased mitochondrial mass (%),[4],0.83%
same,Population with membrane disruption (%),[4],0.83%
same,Cell count normalized to cells treated with DMSO control,[5],1.076
same,Cell count per well,[5],192
same,Population Fragmented Nuclei (%),[5],13.26%
same,Population Healthy Nuclei (%),[5],56.35%
same,Population Pyknosed Nuclei (%),[5],30.39%
same,Population apoptotic cell (%),[5],34.55%
same,Population cell that influence microtubule strucutre (%),[5],45.10%
same,Population with increased mitochondrial mass (%),[5],3.92%
same,Population with membrane disruption (%),[5],7.84%
same,Cell count normalized to cells treated with DMSO control,[6],1.0446
same,Cell count per well,[6],174
same,Population Fragmented Nuclei (%),[6],19.08%
same,Population Healthy Nuclei (%),[6],51.97%
same,Population Pyknosed Nuclei (%),[6],28.95%
same,Population apoptotic cell (%),[6],25.00%
same,Population cell that influence microtubule strucutre (%),[6],64.56%
same,Population with increased mitochondrial mass (%),[6],13.92%
same,Population with membrane disruption (%),[6],7.59%
same,Cell count normalized to cells treated with DMSO control,[7],0.9402
same,Cell count per well,[7],155
same,Population Fragmented Nuclei (%),[7],16.78%
same,Population Healthy Nuclei (%),[7],57.34%
same,Population Pyknosed Nuclei (%),[7],25.87%
same,Population apoptotic cell (%),[7],35.14%
same,Population cell that influence microtubule strucutre (%),[7],70.73%
same,Population with increased mitochondrial mass (%),[7],4.88%
same,Population with membrane disruption (%),[7],13.41%
same,Cell count per well,[8],166
same,Population Fragmented Nuclei (%),[8],32.10%
same,Population Healthy Nuclei (%),[8],49.38%
same,Population Pyknosed Nuclei (%),[8],18.52%
same,Population apoptotic cell (%),[8],50.00%
same,Population cell that influence microtubule strucutre (%),[8],76.25%
same,Population with increased mitochondrial mass (%),[8],3.75%
same,Population with membrane disruption (%),[8],8.75%
same,Cell count normalized to cells treated with DMSO control,[9],1.048
same,Cell count per well,[9],157
